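The compound was tested at five concentrations on cells cultured in 96-well plates, with a 48-hour exposure period. Here, GI50 denotes the concentration required for 50% inhibition of growth.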 Calls of active or inactive are those of the source. Cut-off read from the data, not from the text of the source: active = GI50 up to about 1.1 µM and inactive = higher.
Key:
Assay in all cases: NCI anticancer screen, dose series, 48 h
[1] = test system: CAKI-1
[2] = test system: CCRF-CEM
[3] = test system: HCT-116
[4] = test system: IGROV-1
[5] = test system: K562
[6] = test system: M14
[7] = test system: NCI-H460
[8] = test system: RPMI-8226
[9] = test system: RXF 393
[10] = test system: SF-295
[11] = test system: SF-539
[12] = test system: SK-MEL-28
[13] = test system: SW-620
[14] = test system: TK-10
[15] = test system: UACC-257
[16] = test system: UO-31
[17] = test system: NCI-H226
[18] = test system: SR

Structure (SMILES) | GI50 [1] | GI50 [2] | GI50 [3] | GI50 [4] | GI50 [5] | GI50 [6] | GI50 [7] | GI50 [8] | GI50 [9] | GI50 [10] | GI50 [11] | GI50 [12] | GI50 [13] | GI50 [14] | GI50 [15] | GI50 [16] | GI50 [17] | GI50 [18]
COc1cc(/C=C2/C(=O)N(C(=O)c3ccc(Cl)cc3)N=C2C)cc(OC)c1OC | > 100 µM (inactive) | > 100 µM (inactive) | > 100 µM (inactive) | > 100 µM (inactive) | > 100 µM (inactive) | > 100 µM (inactive) | > 100 µM (inactive) | > 100 µM (inactive) | > 100 µM (inactive) | > 100 µM (inactive) | > 100 µM (inactive) | > 100 µM (inactive) | > 100 µM (inactive) | > 100 µM (inactive) | > 100 µM (inactive) | > 100 µM (inactive) | – | –
O=C1OC2C(O)COC2(O)C1(O)Cc1c[nH]c2ccccc12.O=C1OC2C(O)COC2(OCc2c[nH]c3ccccc23)C1O (stereo unspecified) | > 100 µM (inactive) | > 100 µM (inactive) | > 100 µM (inactive) | > 100 µM (inactive) | > 100 µM (inactive) | > 100 µM (inactive) | > 100 µM (inactive) | > 100 µM (inactive) | > 100 µM (inactive) | > 100 µM (inactive) | > 100 µM (inactive) | – | > 100 µM (inactive) | > 100 µM (inactive) | > 100 µM (inactive) | > 100 µM (inactive) | > 100 µM (inactive) | > 100 µM (inactive)
O=C(O)COc1ccc(C(=O)/C(SS/C(C(=O)c2ccc(OCC(=O)O)c(Cl)c2Cl)=C2\C=C(c3ccccc3Cl)SS2)=C2/C=C(c3ccccc3Cl)SS2)c(Cl)c1Cl | 39.4 µM (inactive) | 13 µM (inactive) | 18 µM (inactive) | 21.3 µM (inactive) | 8.91 µM (inactive) | 28.2 µM (inactive) | 21.8 µM (inactive) | 18.3 µM (inactive) | – | 37.5 µM (inactive) | 11.8 µM (inactive) | 20.6 µM (inactive) | 25.5 µM (inactive) | 33.3 µM (inactive) | 48.8 µM (inactive) | 24.3 µM (inactive) | 17.7 µM (inactive) | 2.23 µM (inactive)
CC1=C2C=CC(=O)C[C@@]2(C)CCC1 | > 100 µM (inactive) | > 100 µM (inactive) | > 100 µM (inactive) | > 100 µM (inactive) | > 100 µM (inactive) | > 100 µM (inactive) | > 100 µM (inactive) | > 100 µM (inactive) | > 100 µM (inactive) | > 100 µM (inactive) | > 100 µM (inactive) | > 100 µM (inactive) | > 100 µM (inactive) | > 100 µM (inactive) | > 100 µM (inactive) | > 100 µM (inactive) | – | –
COC(=O)CCC(NC(=S)N/N=C(\C)c1cccs1)C(=O)OC (stereo unspecified) | – | – | > 100 µM (inactive) | > 100 µM (inactive) | > 100 µM (inactive) | > 100 µM (inactive) | > 100 µM (inactive) | – | > 100 µM (inactive) | > 100 µM (inactive) | > 100 µM (inactive) | > 100 µM (inactive) | > 100 µM (inactive) | > 100 µM (inactive) | > 100 µM (inactive) | > 100 µM (inactive) | > 100 µM (inactive) | –
Cc1nc2ccccc2c(=O)n1/N=C(\N=N\c1ccccc1Cl)c1ccccc1Cl | 29.4 µM (inactive) | 77.3 µM (inactive) | 36.4 µM (inactive) | 42.1 µM (inactive) | 37.3 µM (inactive) | > 100 µM (inactive) | 73.5 µM (inactive) | 30.1 µM (inactive) | 17.9 µM (inactive) | – | 27.2 µM (inactive) | > 100 µM (inactive) | > 100 µM (inactive) | 48 µM (inactive) | – | 36.1 µM (inactive) | – | –
CCCN1CN(C(C(=O)N[C@@H]2C(=O)N3C(C(=O)O)=C(C)CSC23)c2ccccc2)CSC1=S (stereo partly specified) | – | 95.1 µM (inactive) | > 100 µM (inactive) | > 100 µM (inactive) | 47.6 µM (inactive) | > 100 µM (inactive) | 42.5 µM (inactive) | 40.9 µM (inactive) | 25.9 µM (inactive) | > 100 µM (inactive) | > 100 µM (inactive) | > 100 µM (inactive) | – | > 100 µM (inactive) | > 100 µM (inactive) | > 100 µM (inactive) | – | –
Nc1ccc(C(=O)N/C(=C\c2ccc3c(c2)OCO3)c2nc3c(O)nc(S)nc3[nH]2)cc1 | > 100 µM (inactive) | > 100 µM (inactive) | – | > 100 µM (inactive) | > 100 µM (inactive) | > 100 µM (inactive) | – | – | 33.8 µM (inactive) | > 100 µM (inactive) | > 100 µM (inactive) | > 100 µM (inactive) | > 100 µM (inactive) | > 100 µM (inactive) | – | > 100 µM (inactive) | – | > 100 µM (inactive)
CCCCC(C)/C=C/C(O)=C1\C(=O)O/C(=C\C(=O)O)C1=O (stereo unspecified) | – | > 100 µM (inactive) | > 100 µM (inactive) | > 100 µM (inactive) | > 100 µM (inactive) | > 100 µM (inactive) | > 100 µM (inactive) | > 100 µM (inactive) | – | > 100 µM (inactive) | > 100 µM (inactive) | > 100 µM (inactive) | > 100 µM (inactive) | > 100 µM (inactive) | > 100 µM (inactive) | > 100 µM (inactive) | > 100 µM (inactive) | > 100 µM (inactive)
COc1ccc2[nH]c3c(C)c4cc[n+](COC(=O)c5ccccc5)cc4c(C)c3c2c1 | 0.569 µM (active) | 0.0698 µM (active) | 0.0378 µM (active) | 0.158 µM (active) | 0.221 µM (active) | 0.641 µM (active) | 0.0357 µM (active) | 0.144 µM (active) | – | 0.184 µM (active) | 0.305 µM (active) | 1.31 µM (inactive) | 0.0668 µM (active) | 0.55 µM (active) | 1.19 µM (inactive) | 1.76 µM (inactive) | – | 0.0313 µM (active)
CC1SC2=NC3=C(c4ccccc4C3=O)C(c3ccc(F)cc3)N2C1=O (stereo unspecified) | > 100 µM (inactive) | > 100 µM (inactive) | > 100 µM (inactive) | > 100 µM (inactive) | > 100 µM (inactive) | > 100 µM (inactive) | > 100 µM (inactive) | 65.3 µM (inactive) | – | > 100 µM (inactive) | > 100 µM (inactive) | > 100 µM (inactive) | > 100 µM (inactive) | > 100 µM (inactive) | > 100 µM (inactive) | 38.9 µM (inactive) | 38.5 µM (inactive) | –
Cc1cc2oc(-c3ccccc3)c(C)c(=O)c2c2c1OC(C)(C)S2 | – | 62.8 µM (inactive) | 71 µM (inactive) | > 100 µM (inactive) | 30.9 µM (inactive) | > 100 µM (inactive) | 92.7 µM (inactive) | 47 µM (inactive) | 70.3 µM (inactive) | > 100 µM (inactive) | > 100 µM (inactive) | 60.7 µM (inactive) | > 100 µM (inactive) | > 100 µM (inactive) | 63.7 µM (inactive) | > 100 µM (inactive) | > 100 µM (inactive) | 29.6 µM (inactive)
COc1ccc(Nc2nc(C#N)c(N)s2)cc1 | 24.6 µM (inactive) | – | 33 µM (inactive) | 76.6 µM (inactive) | 24.5 µM (inactive) | 81.5 µM (inactive) | > 100 µM (inactive) | 18.8 µM (inactive) | – | 29.2 µM (inactive) | 36.2 µM (inactive) | > 100 µM (inactive) | 46.1 µM (inactive) | 38.2 µM (inactive) | 17.1 µM (inactive) | 40.8 µM (inactive) | > 100 µM (inactive) | –
Nc1ccccc1[S+]([O-])c1ccccc1 (stereo unspecified) | – | > 100 µM (inactive) | > 100 µM (inactive) | > 100 µM (inactive) | > 100 µM (inactive) | > 100 µM (inactive) | > 100 µM (inactive) | > 100 µM (inactive) | > 100 µM (inactive) | > 100 µM (inactive) | > 100 µM (inactive) | > 100 µM (inactive) | > 100 µM (inactive) | > 100 µM (inactive) | – | > 100 µM (inactive) | > 100 µM (inactive) | –
O=C(O)NC(c1ccccc1)C(NC(=O)c1ccccc1)c1ccccc1 (stereo unspecified) | > 100 µM (inactive) | – | > 100 µM (inactive) | > 100 µM (inactive) | > 100 µM (inactive) | – | > 100 µM (inactive) | > 100 µM (inactive) | > 100 µM (inactive) | > 100 µM (inactive) | > 100 µM (inactive) | > 100 µM (inactive) | > 100 µM (inactive) | > 100 µM (inactive) | > 100 µM (inactive) | – | – | > 100 µM (inactive)
CCOC(=O)C(C(=O)OCC)P(=S)(S)c1ccccc1 (stereo unspecified) | > 100 µM (inactive) | > 100 µM (inactive) | – | > 100 µM (inactive) | > 100 µM (inactive) | – | > 100 µM (inactive) | – | > 100 µM (inactive) | > 100 µM (inactive) | > 100 µM (inactive) | > 100 µM (inactive) | > 100 µM (inactive) | > 100 µM (inactive) | > 100 µM (inactive) | > 100 µM (inactive) | > 100 µM (inactive) | > 100 µM (inactive)
OC1CCC[C@@H]1Sc1ccccc1 (stereo partly specified) | > 100 µM (inactive) | > 100 µM (inactive) | > 100 µM (inactive) | – | > 100 µM (inactive) | > 100 µM (inactive) | > 100 µM (inactive) | > 100 µM (inactive) | > 100 µM (inactive) | > 100 µM (inactive) | > 100 µM (inactive) | > 100 µM (inactive) | > 100 µM (inactive) | > 100 µM (inactive) | > 100 µM (inactive) | > 100 µM (inactive) | – | > 100 µM (inactive)

Source: ChEMBL document CHEMBL1201862, “PubChem BioAssay data set” (2004)
